Data as given in patent publication US20230150951A1, “2,5- OR 2,6-DISUBSTITUTED HYDROQUINONE DERIVATIVES WITH AT LEAST ONE CARBOXY, SULFO OR AMIDO GROUP USEFUL AS MEDICAMENTS” (OM PHARMA SA, priority 2020, published 2023).

What was measured:
Format in all cases: cell-based
FGF-2 = target: T1, FGF-2 (Homo sapiens, UniProt P09038); experiment: FGF-2 induced sprouting of HUVEC, spheroid-based cellular angiogenesis assay; settings: FGF-2 25 ng/mL preincubated with compound, 24 h
T1 construct: purchased Peprotech 100-18C
Experimental: (§1) Aim of this in vitro method is to assess compounds effects on FGF-2, FGF-1, or VEGF-A induced sprouting of human umbilical vein endothelial cells (HUVEC) in the spheroid-based cellular angiogenesis assay. Before adding the growth factors to the cells, they were preincubated with the compound. Sunitinib was tested as a control (without preincubation).
(§2) IC50 values determined for the tested compounds are expressed in microM [μM] and the values for the inhibition of FGF-1, FGF2 and VEGF-A induced growth (sprouting) are listed after each compound in the examples after chemical characterization.
(§3) Sprouting test was performed on the compounds dissolved in DMSO to reach 100-fold concentrated stock solutions and dissolved in culture media. Sunitinib as reference compound was provided by ProQinase GmbH. Growth factors were purchased from rhFGF-basic (FGF-2), Peprotech, New Jersey, USA, #100-18C, Lot #0415571; rhFGF-acidic (FGF-1), Peprotech, New Jersey, USA, #100-17A, Lot #031207; hVEGF-A165 (ProQinase GmbH, Freiburg, Germany; 05.02.2010) were used for stimulation of HUVEC cells growth.
(§4) Test system: Endothelial cells from human umbilical vein (HUVEC) from pooled donors were stored frozen with 70% medium, 20% FCS, 10% DMSO at about 1×10^6 cells/ampoule. HUVEC cells, primary human umbilical vein endothelial cells (PromoCell, Heidelberg, Germany), were used after passage 3 to 4. Morphology of the cells are adherent, cobblestone-like growing as monolayer and were cultured in endothelial cell growth and basal medium (ECGM/ECBM, PromoCell). The subculture was split 1:3; every 3-5 days, seed out at ca. 1×10^4 cells/cm^2 and incubated at 37° C. with 5% CO2 with a doubling time 24-48 hours
(§5) Dilution of test compounds: 100× concentrated solutions (concerning to the final assay concentrations) of each test compound were prepared with the appropriate solvent (in DMSO or in water). These 100×compound solutions were further diluted in endothelial cell growth and basal medium (ECBM) 1:7.5 to get a 13.33× concentrated solution. 75 μl of the 13.33×solution was subsequently mixed with 25 μl of 40× concentrated stimulus (solved in ECBM), resulting in a 10×concentrated stimulus/compound mixture. This mixture (100 μl) was incubated for 30 min at 37° C. and then added to 900 μl gel, containing the HUVEC spheroids (resulting in the final assay concentration).
(§6) Test method: the experiments were pursued in modification of the originally published protocol (Korff and Augustin: J Cell Sci 112: 3249-58, 1999). In brief, spheroids were prepared as described (Korff and Augustin: J Cell Biol 143: 1341-52, 1998) by pipetting 400 HUVEC in a hanging drop on plastic dishes to allow overnight spheroid aggregation. 50 HUVEC spheroids were then seeded in 0.9 ml of a collagen gel and pipetted into individual wells of a 24 well plate to allow polymerization. The test compounds were preincubated with the growth factors (FGF-1, FGF-2 or VEGF-A final concentration 25 ng/mL) in a 10-fold concentrated solution and subsequently, 100 μl of this solution was added on top of the polymerized gel. All compounds were diluted in solvent (DMSO or water) as 100×stocks first (which means 100×stocks of each final assay concentration were prepared in solvent). Subsequently, these stocks were further diluted in medium (resulting in the 13.33×stocks of each final assay concentration) with final concentrations tested: 100, 50, 25, 12.5, 6.25, 3.13 and 1.56×10^−6 M). Plates were incubated at 37° C. for 24 hours and fixed by adding 4% PFA (Roth, Karlsruhe, Germany).
(§7) Quantification of growth factor inhibition: sprouting intensity of HUVEC spheroids treated with the growth factor and the inhibitors were quantitated by an image analysis system determining the cumulative sprout length per spheroid (CSL).

VEGFR-2 = target: T2, VEGFR-2 (Homo sapiens, UniProt P35968); experiment: VEGF-165 induced phosphorylation of VEGF-Receptor on HUVEC; settings: HUVEC preincubated 60 min, VEGF165 25 ng/mL 2 min; read-out: VEGFR-Phosphorylation inhibition IC50
T2 construct: endogenous in cells; host or cells: primary HUVEC
Experimental: Cell culture: Primary human umbilical vein endothelial cells (HUVECs) were routinely cultured in 0.1% gelatin pre-coated flasks or dishes, up to passage 6. […]
Rabbit primary antibodies for VEGFR-2, p-Tyr1175 were acquired from Cell Signaling Technology (Leiden, The Netherlands). Phospho-VEGFR-2 (Tyr1175) Sandwich ELISA Kit was from Cell Signaling Technology.
[…] Western blot analysis was performed using anti-phospho-VEGFR-2 antibody and total VEGFR-2 was used as a loading control after membrane stripping.
Inhibition of VEGFR-2-phosphorylation results are expressed as IC50 in microM [μM] versus VEGF-treated HUVECs control without inhibitory compound.

FGF-1 = target: T3, FGF-1 (Homo sapiens, UniProt P05230); experiment: FGF-1 induced sprouting of HUVEC, spheroid-based cellular angiogenesis assay; settings: FGF-1 25 ng/mL preincubated with compound, 24 h
T3 construct: purchased Peprotech 100-17A
Experimental: as §1, §2, §3, §4, §5, §6, §7

Human neutrophils [1] = experiment: Neutrophil adhesion under static conditions; settings: fMLP-stimulated adhesion to fibrinogen; method: 40 μM and 80 μM, concentration of the value not stated
Experimental: Human neutrophils obtained from buffy coats of healthy donors were suspended at 3×10^6/ml in adhesion buffer (PBS containing 1 mM CaCl2)/MgCl2 and 10% FCS, pH 7.2). Neutrophils were preincubated for 30 min at 37° C. with 40 μM and 80 μM of the compounds.
Adhesion assays were performed on 18-well glass slides coated for 18 h at 4° C. with human fibrinogen (20 μg/well in endotoxin-free PBS); 20 μl of cell suspension were added to each well and stimulated for 1 min at 37° C. with 5 μl of fMLP 1 nM final concentration. After washing, adherent cells were fixed in glutaraldehyde 1.5% in PBS and counted by computer-assisted enumeration. Statistical analysis was performed by calculating mean and standard deviation (SD); significance was calculated by unpaired t-test. All statistical analyses were performed using GraphPad Prism 6 (GraphPad Software).

Human neutrophils [2] = experiment: Inhibition of ROS production in human neutrophils (isoluminol chemiluminescence); settings: Homo sapiens, Neutrophil, fMLP+TNF-α stimulated PMN
Excerpt: NADPH oxidase, located in the plasma membrane and in the membranes of specific granules, produces superoxide anions from which other ROS, such as hydrogen peroxide, singlet oxygen, hypochlorite, and active hydroxyl radicals. ROS are released into the surrounding medium or into a membrane-enclosed subcellular organelle. One quick and sensitive method for measuring the generation of these metabolites is chemiluminescence (CL). Isoluminol amplified CL technique, is very sensitive and widely used to study respiratory burst (mainly extracellular production of ROS) induced in neutrophils.
Human neutrophils were isolated from buffy coats which obtained from healthy donors. The isolated neutrophils (3×10^6/ml) were suspended in Hanks' Balanced Salt Solution (HBSS) with Calcium and Magnesium. Neutrophils were pre-incubated with the compounds at different concentrations (0.1, 0.3, 1, 3 and 10 μM) for 30 min at 37° C. The black 96-well cell culture plates were coated with human fibrinogen (0.25 mg/ml in PBS), and incubated overnight at 4° C. or 2 hr at 37° C. Then the plates were washed with endotoxin-free PBS. The neutrophils were incubated (priming) with TNF-α (20 ng/ml) for 10 minutes at 37° C. Thereupon the 75 μl of cell suspension and 75 μl (Isoluminol+HRP solution) were added to each well. The chemiluminescence was recorded (every 25 sec for 250 sec) after fMLP (1 μM) activation using a Multilabel Reader victor3 (Perkin Elmer, USA). Background values, defined as the mean chemiluminescent values of isoluminol diluted in HBSS, were subtracted from all readings (CPS, count per second). The assays were done in duplicate or triplicate.

T2 sequence (P35968 20-1356): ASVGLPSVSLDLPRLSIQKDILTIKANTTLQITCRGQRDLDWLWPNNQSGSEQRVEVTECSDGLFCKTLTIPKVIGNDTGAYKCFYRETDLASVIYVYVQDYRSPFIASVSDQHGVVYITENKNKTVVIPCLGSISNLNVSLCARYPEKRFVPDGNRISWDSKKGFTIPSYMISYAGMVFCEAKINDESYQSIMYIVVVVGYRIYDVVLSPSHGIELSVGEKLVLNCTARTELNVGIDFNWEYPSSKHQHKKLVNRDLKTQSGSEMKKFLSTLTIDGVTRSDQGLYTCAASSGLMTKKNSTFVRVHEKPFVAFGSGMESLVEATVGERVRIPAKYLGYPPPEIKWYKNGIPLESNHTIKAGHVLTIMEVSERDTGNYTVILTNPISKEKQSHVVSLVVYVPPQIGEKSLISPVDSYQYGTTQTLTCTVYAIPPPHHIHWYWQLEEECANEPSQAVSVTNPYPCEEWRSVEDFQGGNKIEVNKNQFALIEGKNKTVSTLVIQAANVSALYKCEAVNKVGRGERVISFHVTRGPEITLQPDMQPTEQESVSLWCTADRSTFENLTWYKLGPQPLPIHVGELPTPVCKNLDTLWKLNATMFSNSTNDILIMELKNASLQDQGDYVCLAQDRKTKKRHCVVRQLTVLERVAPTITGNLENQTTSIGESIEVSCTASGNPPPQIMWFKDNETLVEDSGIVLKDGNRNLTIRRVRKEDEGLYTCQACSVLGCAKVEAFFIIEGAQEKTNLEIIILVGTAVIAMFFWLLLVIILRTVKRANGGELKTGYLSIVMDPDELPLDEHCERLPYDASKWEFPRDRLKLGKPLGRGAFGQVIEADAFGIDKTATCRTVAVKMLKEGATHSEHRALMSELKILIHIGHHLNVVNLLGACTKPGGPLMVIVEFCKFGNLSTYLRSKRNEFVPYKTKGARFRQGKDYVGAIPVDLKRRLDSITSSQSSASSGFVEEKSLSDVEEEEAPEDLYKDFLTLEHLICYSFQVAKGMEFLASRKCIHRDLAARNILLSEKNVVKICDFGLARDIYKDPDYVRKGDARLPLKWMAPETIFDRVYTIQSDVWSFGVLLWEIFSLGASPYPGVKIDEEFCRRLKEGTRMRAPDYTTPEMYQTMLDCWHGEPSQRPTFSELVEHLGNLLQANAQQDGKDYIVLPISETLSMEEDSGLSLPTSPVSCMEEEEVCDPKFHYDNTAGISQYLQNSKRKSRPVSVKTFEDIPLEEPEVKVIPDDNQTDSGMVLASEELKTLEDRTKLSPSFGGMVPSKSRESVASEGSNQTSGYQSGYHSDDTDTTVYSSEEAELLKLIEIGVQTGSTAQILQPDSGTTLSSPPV
T1 sequence (P09038 134-288): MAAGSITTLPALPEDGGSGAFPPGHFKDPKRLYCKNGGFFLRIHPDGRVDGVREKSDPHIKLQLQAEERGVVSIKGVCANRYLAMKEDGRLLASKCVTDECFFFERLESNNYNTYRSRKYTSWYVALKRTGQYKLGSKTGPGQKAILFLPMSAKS
T3 sequence (P05230 whole entry): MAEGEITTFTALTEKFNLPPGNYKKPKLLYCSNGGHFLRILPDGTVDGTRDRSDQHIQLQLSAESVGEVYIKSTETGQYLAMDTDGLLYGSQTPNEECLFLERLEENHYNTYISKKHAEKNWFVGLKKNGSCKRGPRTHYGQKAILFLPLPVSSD

Structure (SMILES) | IC50 (FGF-2) | IC50 (VEGFR-2) | IC50 (FGF-1) | Neutrophil adhesion inhibition (Human neutrophils [1]) | inhibition at 0.3 µM (Human neutrophils [2]) | IC50 (Human neutrophils [2])
O=C(O)c1ccc(NC(=O)c2cc(O)cc(C(=O)O)c2O)cc1 [IIa-003a, 3-(4-carboxyphenylaminocarbonyl)-2,5-dihydroxybenzoic acid] | 13 µM | 2.5 µM | 22 µM | 35.27% | 59.3% | 
COC(=O)c1cc(NC(=O)c2cc(O)c(C(=O)Nc3ccc(O)c(C(=O)OC)c3)cc2O)ccc1O [Ic-007a-E2, methyl 5-(2,5-dihydroxy-4-(4-hydroxy-3-(methoxycarbonyl)phenylaminocarbonyl)benzamido)-2-hydroxybenzoate] | 49 µM | 0.25 µM | 23 µM | 2% | 21.3% | 7.9 µM
CCOC(=O)c1cc(O)cc(C(=O)Nc2ccccc2-c2nnn[nH]2)c1O [IIa-001aTz-E1, ethyl 3-(2-(1H-tetrazol-5-yl)phenylaminocarbonyl)-2,5-dihydroxybenzoate] | 42 µM | ≥ 100 µM | ≥ 200 µM | 81.94% | 68.9% | 
O=C(O)c1cc(O)cc(C(=O)Nc2cccc(C(=O)O)c2C(=O)O)c1O [IIa-011a, 3-(3-carboxy-2,5-dihydroxybenzamido)phthalic acid] | 123 µM | ≥ 100 µM | 141 µM | 26% | 58.1% | 1.18 µM
O=C(O)Cc1cccc(NC(=O)c2cc(O)cc(C(=O)O)c2O)c1 [IIa-033a, 3-(3-(carboxymethyl)phenylaminocarbonyl)-2,5-dihydroxybenzoic acid] | 32 µM | 4.9 µM | 35 µM | 11.75% | 50.6% | 0.914 µM
O=C(O)c1ccccc1NC(=O)c1cc(O)cc(C(=O)O)c1O [IIa-001a, 3-(2-carboxyphenylaminocarbonyl)-2,5-dihydroxybenzoic acid] | 11 µM | ≥ 100 µM | 8.6 µM | 36.24% | 30.5% | 0.408 µM
O=C(O)c1cc(NC(=O)c2cc(O)cc(C(=O)O)c2O)ccc1O [IIa-004a, 3-(3-carboxy-4-hydroxyphenylaminocarbonyl)-2,5-dihydroxybenzoic acid] | 33 µM | ≥ 100 µM | 47 µM | 36% | 63.5% | 1 µM
O=C(O)c1cc(O)c(C(=O)NCc2ccc(O)c(O)c2)cc1O [Ia-035a, 4-(3,4-Dihydroxyphenylmethylaminocarbonyl)-2,5-dihydroxybenzoic acid] | 71 µM | 36 µM | 20 µM | 27% | 75.1% | 0.41 µM
O=C(O)Cc1cccc(NC(=O)c2cc(O)c(C(=O)O)cc2O)c1 [Ia-033a, 4-(3-(carboxymethyl)phenylaminocarbonyl)-2,5-dihydroxybenzoic acid] | 165 µM | ≥ 100 µM | 60 µM | 38% | 57.7% | 1.32 µM
CCOC(=O)c1cc(O)c(C(=O)Nc2ccc(O)c(C(=O)OC)c2)cc1O [Ia-004a-E2, ethyl 2,5-dihydroxy-4-(4-hydroxy-3-(methoxycarbonyl)phenylaminocarbonyl)benzoate] | 36 µM | 6.1 µM | 35 µM | 97.65% | 85.3% | 
COC(=O)c1cc(O)ccc1NC(=O)c1cc(O)c(C(=O)Nc2ccc(O)cc2C(=O)OC)cc1O [Ic-009a-E2, methyl 2-(2,5-dihydroxy-4-(4-hydroxy-2-(methoxycarbonyl)phenylaminocarbonyl)benzamido)-5-hydroxybenzoate] | 30 µM | 0.02 µM | 23 µM | 41.05% | 24.1% | 
O=C(O)c1cc(O)c(CS(=O)(=O)Cc2cc(O)c(C(=O)O)cc2O)cc1O [IIIc-059a, 4-((2,5-Dihydroxy-4-carboxyphenyl)methylsulfonylmethyl)-2,5-dihydroxybenzoic acid] | 50 µM | 3.61 µM | 47 µM | 14.67% | 66.4% | 1 µM
